According to patent US11365188B2, “JAK inhibitors” (priority 2018, dated 2022):

Target: JAK1 (Homo sapiens, UniProt P23458)
Experiment: JAK Kinase Assay (JAK1, Caliper EZ Reader, fluoresceinated peptide)
Format: biochemical
Conditions: ATP 76.5 μM; JAK1 10 nM; 120 minutes at room temperature; read-out: JAK1 inhibition
Method: JAK Kinase Assay 384-well plates in the left foot butoxy measured progress. The final assay volume was 25 μL, 250 nL 100× compounds, 10 μL enzyme mix and 15 μL substrate mix (fluoresceinated peptide and ATP) in assay buffer (20 mM HEPES (pH 7.5), 10 mM MgCl2, […], 0.5 mM EGTA and 2 mM DTT) prepared as test compound. By mixing the JAK1 with substrates and test compounds to start the reaction. There action mixture was incubated for 120 minutes at room temperature, then added 30 μL stop buffer for each sample to terminate the reaction with 50 mM EDTA. After termination of the kinase reaction, the proportion of phosphorylated product was determined as a fraction of total peptide substrate using Caliper EZ Reader II. Inhibition data were calculated by comparison with 100% of the reaction mixture without enzyme inhibition and vehicle-only reaction mixture billion % inhibition compared. The final concentration of reagents in the assays is: ATP, 76.5 μM; JAK1 fluorescent peptide (5-FAM-EEPLYWSFPAKKK-CONH2), 3 μM; JAK1, 10 nM, and DMSO, 1%. Dose response curve were generated to determine the concentration required for IC50 of JAK activity.

Chain of JAK1 (P23458 whole entry, species assumed): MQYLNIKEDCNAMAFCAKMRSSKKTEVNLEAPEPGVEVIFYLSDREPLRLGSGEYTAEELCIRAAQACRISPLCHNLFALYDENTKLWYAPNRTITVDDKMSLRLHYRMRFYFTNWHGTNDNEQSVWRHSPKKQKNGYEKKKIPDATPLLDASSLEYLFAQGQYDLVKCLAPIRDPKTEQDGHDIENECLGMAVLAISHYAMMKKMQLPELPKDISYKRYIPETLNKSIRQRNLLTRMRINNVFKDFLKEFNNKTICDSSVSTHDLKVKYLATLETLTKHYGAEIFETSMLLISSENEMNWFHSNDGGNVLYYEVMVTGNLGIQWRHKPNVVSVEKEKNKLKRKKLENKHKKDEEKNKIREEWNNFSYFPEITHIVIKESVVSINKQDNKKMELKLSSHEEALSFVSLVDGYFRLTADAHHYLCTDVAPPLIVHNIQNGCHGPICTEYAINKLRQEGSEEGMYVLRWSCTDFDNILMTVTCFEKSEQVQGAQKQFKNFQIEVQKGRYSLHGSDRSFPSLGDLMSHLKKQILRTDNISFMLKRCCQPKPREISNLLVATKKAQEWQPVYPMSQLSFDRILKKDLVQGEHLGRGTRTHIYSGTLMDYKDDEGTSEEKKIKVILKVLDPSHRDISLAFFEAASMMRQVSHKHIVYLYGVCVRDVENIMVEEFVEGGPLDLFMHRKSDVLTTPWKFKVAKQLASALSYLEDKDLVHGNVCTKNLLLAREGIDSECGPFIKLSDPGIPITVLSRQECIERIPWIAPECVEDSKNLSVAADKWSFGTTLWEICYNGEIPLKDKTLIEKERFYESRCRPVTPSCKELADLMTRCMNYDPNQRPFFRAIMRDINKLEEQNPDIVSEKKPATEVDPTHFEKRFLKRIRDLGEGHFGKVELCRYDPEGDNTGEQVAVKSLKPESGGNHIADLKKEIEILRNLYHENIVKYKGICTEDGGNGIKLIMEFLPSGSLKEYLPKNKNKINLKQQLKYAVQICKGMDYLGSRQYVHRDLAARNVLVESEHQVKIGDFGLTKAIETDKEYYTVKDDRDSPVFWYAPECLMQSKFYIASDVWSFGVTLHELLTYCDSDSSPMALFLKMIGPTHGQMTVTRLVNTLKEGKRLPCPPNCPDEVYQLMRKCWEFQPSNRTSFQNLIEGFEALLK

| SMILES | IC50 |
| --- | --- |
| CN(c1ncnc2[nH]ccc12)C1CC2(C1)CN(C(=O)c1cc(F)c(C#N)cc1F)C2 [Compound 51, 2,5-difluoro-4-(6-(methyl(7H-pyrrolo[2,3-d]pyrimidin-4-yl)amino)-2-azaspiro[3.3]heptane-2-carbonyl)benzonitrile] | 10 to 100 nM |
| CN(c1ncnc2[nH]ccc12)C1CC2(C1)CN(C(=O)c1cc(F)c(C#N)c(F)c1)C2 [Compound 52, 2,6-difluoro-4-(6-(methyl(7H-pyrrolo[2,3-d]pyrimidin-4-yl)amino)-2-azaspiro[3.3]heptane-2-carbonyl)benzonitrile] | 10 to 100 nM |
| Cc1cc(C(=O)N2CC3(CC(N(C)c4ncnc5[nH]ccc45)C3)C2)c(F)cc1C#N [Compound 54, 5-fluoro-2-methyl-4-(6-(methyl(7H-pyrrolo[2,3-d]pyrimidin-4-yl)amino)-2-azaspiro[3.3]heptane-2-carbonyl)benzonitrile] | 10 to 100 nM |
| CN(c1ncnc2[nH]ccc12)C1CC2(C1)CN(C(=O)c1cccc(F)c1F)C2 [Compound 55, (2,3-difluorophenyl)(6-(methyl(7H-pyrrolo[2,3-d]pyrimidin-4-yl)amino)-2-azaspiro[3.3]heptan-2-yl)methanone] | 10 to 100 nM |
| CN(c1ncnc2[nH]ccc12)C1CC2(C1)CN(C(=O)c1c(F)cc(C#N)cc1F)C2 [Compound 56, 3,5-difluoro-4-(6-(methyl(7H-pyrrolo[2,3-d]pyrimidin-4-yl)amino)-2-azaspiro[3.3]heptane-2-carbonyl)benzonitrile] | ≤ 10 nM |
| CN(c1ncnc2[nH]ccc12)C1CC2(C1)CN(C(=O)c1ccc(F)c(C#N)c1)C2 [Compound 57, 2-Fluoro-5-{6-[methyl-(7H-pyrrolo[2,3-d]pyrimidin-4-yl)-amino]-2-aza-spiro[3.3]heptane-2-carbonyl}-benzonitrile] | ≤ 10 nM |
| CN(c1ncnc2[nH]ccc12)C1CC2(C1)CN(C(=O)c1cc(F)cc(C#N)c1)C2 [Compound 58, 3-Fluoro-5-{6-[methyl-(7H-pyrrolo[2,3-d]pyrimidin-4-yl)-amino]-2-aza-spiro[3.3]heptane-2-carbonyl}-benzonitrile] | ≤ 10 nM |
| CN(c1ncnc2[nH]ccc12)C1CC2(C1)CN(C(=O)c1ccc(C#N)c(Cl)c1Cl)C2 [Compound 60, 2,3-Dichloro-4-{6-[methyl-(7H-pyrrolo[2,3-d]pyrimidin-4-yl)-amino]-2-aza-spiro[3.3]heptane-2-carbonyl}-benzonitrile] | ≤ 10 nM |
| CN(c1ncnc2[nH]ccc12)C1CC2(C1)CN(C(=O)c1ccc(F)c(C#N)c1F)C2 [Compound 61, 2,6-Difluoro-3-{6-[methyl-(7H-pyrrolo[2,3-d]pyrimidin-4-yl)-amino]-2-aza-spiro[3.3]heptane-2-carbonyl}-benzonitrile] | ≤ 10 nM |
| CN(c1ncnc2[nH]ccc12)C1CC2(C1)CN(C(=O)c1cc(F)c(F)c(C#N)c1)C2 [Compound 62, 2,3-Difluoro-5-{6-[methyl-(7H-pyrrolo[2,3-d]pyrimidin-4-yl)-amino]-2-aza-spiro[3.3]heptane-2-carbonyl}-benzonitrile] | 10 to 100 nM |
| CN(c1ncnc2[nH]ccc12)C1CC2(C1)CN(C(=O)c1cc(C#N)cc(F)c1F)C2 [Compound 63, 3,4-Difluoro-5-{6-[methyl-(7H-pyrrolo[2,3-d]pyrimidin-4-yl)-amino]-2-aza-spiro[3.3]heptane-2-carbonyl}-benzonitrile] | ≤ 10 nM |
| [2H]C([2H])([2H])N(c1ncnc2[nH]ccc12)C1CC2(C1)CN(C(=O)c1ccc(C#C)c(F)c1)C2 [Compound 64, (4-Ethynyl-3-fluoro-phenyl)-{6-[(methyl-d3)-(7H-pyrrolo[2,3-d]pyrimidin-4-yl)-amino]-2-aza-spiro[3.3]hept-2-yl}-methanone] | ≤ 10 nM |
| [2H]C([2H])([2H])N(c1ncnc2[nH]ccc12)C1CC2(C1)CN(C(=O)c1ccc(C#N)c(F)c1)C2 [Compound 65] | 10 to 100 nM |
| [2H]C([2H])([2H])N(c1ncnc2[nH]ccc12)C1CC2(C1)CN(C(=O)c1ccc(C#CC)c(F)c1)C2 [Compound 66] | ≤ 10 nM |
| [2H]C([2H])([2H])N(c1ncnc2[nH]ccc12)C1CC2(C1)CN(C(=O)c1ccc(C#N)c(F)c1F)C2 [Compound 67, 2,3-Difluoro-4-{6-[(methyl-d3)-(7H-pyrrolo[2,3-d]pyrimidin-4-yl)-amino]-2-aza-spiro[3.3]heptane-2-carbonyl}-benzonitrile] | ≤ 10 nM |
| COc1nsc(NC(=O)N2CC3(CC(N(C)c4ncnc5[nH]ccc45)C3)C2)n1 [Compound 70, N-(3-methoxy-1,2,4-thiadiazol-5-yl)-6-(methyl(7H-pyrrolo[2,3-d]pyrimidin-4-yl)amino)-2-azaspiro[3.3]heptane-2-carboxamide] | ≤ 10 nM |

| SMILES | IC50 |
| --- | --- |
| CN(c1ncnc2[nH]ccc12)C1CC2(C1)CN(C(=O)c1ccc(S(N)(=O)=O)cc1)C2 [Compound 71, 4-(6-(methyl(7H-pyrrolo[2,3-d]pyrimidin-4-yl)amino)-2-azaspiro[3.3]heptane-2-carbonyl)benzenesulfonamide] | ≤ 10 nM |
| COCC(=O)N1CCC2(CCC(N(C)c3ncnc4[nH]ccc34)CC2)CC1 [Compound 72, 2-methoxy-1-(9-(methyl(7H-pyrrolo[2,3-d]pyrimidin-4-yl)amino)-3-azaspiro[5.5]undecan-3-yl)ethan-1-one] | 10 to 100 nM |
| COc1nsc(NC(=O)N2CCC3(CCC(N(C)c4ncnc5[nH]ccc45)CC3)CC2)n1 [Compound 74, N-(3-methoxy-1,2,4-thiadiazol-5-yl)-9-(methyl(7H-pyrrolo[2,3-d]pyrimidin-4-yl)amino)-3-azaspiro[5.5]undecane-3-carboxamide] | ≤ 10 nM |
| CN(c1ncnc2[nH]ccc12)C1CCC2(CC1)CCN(C(=O)OC(C)(C)C)CC2 [Compound 106, tert-butyl 9-(methyl(7H-pyrrolo[2,3-d]pyrimidin-4-yl)amino)-3-azaspiro[5.5]undecane-3-carboxylate] | 1000 to 10000 nM |
| CN(c1ncnc2[nH]ccc12)C1CCC2(CC1)CCN(C(=O)COc1ccccc1)CC2 [Compound 107, 1-(9-(methyl(7H-pyrrolo[2,3-d]pyrimidin-4-yl)amino)-3-azaspiro[5.5]undecan-3-yl)-2-phenoxyethan-1-one] | ≤ 10 nM |
| CN(c1ncnc2[nH]ccc12)C1CCC2(CC1)CCN(C(=O)OCC(F)(F)F)CC2 [Compound 108, 2,2,2-trifluoroethyl 9-(methyl(7H-pyrrolo[2,3-d]pyrimidin-4-yl)amino)-3-azaspiro[5.5]undecane-3-carboxylate] | 100 to 1000 nM |
| CN(c1ncnc2[nH]ccc12)C1CCC2(CC1)CCN(C(=O)NCC(F)(F)F)CC2 [Compound 109, 9-(methyl(7H-pyrrolo[2,3-d]pyrimidin-4-yl)amino)-N-(2,2,2-trifluoroethyl)-3-azaspiro[5.5]undecane-3-carboxamide] | 10 to 100 nM |
| CNC(=O)N1CCC2(CCC(N(C)c3ncnc4[nH]ccc34)CC2)CC1 [Compound 110, N-methyl-9-(methyl(7H-pyrrolo[2,3-d]pyrimidin-4-yl)amino)-3-azaspiro[5.5]undecane-3-carboxamide] | 10 to 100 nM |
| CCN(CC)S(=O)(=O)N1CCC2(CCC(N(C)c3ncnc4[nH]ccc34)CC2)CC1 [Compound 111, N,N-diethyl-9-(methyl(7H-pyrrolo[2,3-d]pyrimidin-4-yl)amino)-3-azaspiro[5.5]undecane-3-sulfonamide] | ≥ 10000 nM |
| CN(c1ncnc2[nH]ccc12)C1CCC2(CC1)CCN(C(=O)c1ccc(S(N)(=O)=O)cc1)CC2 [Compound 112, 4-(9-(methyl(7H-pyrrolo[2,3-d]pyrimidin-4-yl)amino)-3-azaspiro[5.5]undecane-3-carbonyl)benzenesulfonamide] | 10 to 100 nM |
| CN(c1ncnc2[nH]ccc12)C1CCC2(CC1)CCN(C(=O)CCS(N)(=O)=O)CC2 [Compound 113, 3-(9-(methyl(7H-pyrrolo[2,3-d]pyrimidin-4-yl)amino)-3-azaspiro[5.5]undecan-3-yl)-3-oxopropane-1-sulfonamide] | 1000 to 10000 nM |
| CN(c1ncnc2[nH]ccc12)C1CCC2(CC1)CCN(C(=O)COc1cc(F)cc(C#N)c1)CC2 [Compound 114, 3-fluoro-5-(2-(9-(methyl(7H-pyrrolo[2,3-d]pyrimidin-4-yl)amino)-3-azaspiro[5.5]undecan-3-yl)-2-oxoethoxy)benzonitrile] | ≤ 10 nM |
| CN(c1ncnc2[nH]ccc12)C1CCC2(CC1)CCN(C(=O)COc1ccc(C#N)cc1)CC2 [Compound 115, 4-(2-(9-(methyl(7H-pyrrolo[2,3-d]pyrimidin-4-yl)amino)-3-azaspiro[5.5]undecan-3-yl)-2-oxoethoxy)benzonitrile] | ≤ 10 nM |
| CN(c1ncnc2[nH]ccc12)C1CCC2(CC1)CCN(C(=O)COc1cccc(C#N)c1)CC2 [Compound 116, 3-(2-(9-(methyl(7H-pyrrolo[2,3-d]pyrimidin-4-yl)amino)-3-azaspiro[5.5]undecan-3-yl)-2-oxoethoxy)benzonitrile] | 10 to 100 nM |
| CN(c1ncnc2[nH]ccc12)C1CCC2(CC1)CCN(C(=O)COc1ccc(C#N)c(F)c1)CC2 [Compound 117, 2-fluoro-4-(2-(9-(methyl(7H-pyrrolo[2,3-d]pyrimidin-4-yl)amino)-3-azaspiro[5.5]undecan-3-yl)-2-oxoethoxy)benzonitrile] | 10 to 100 nM |
| CN(c1ncnc2[nH]ccc12)C1CCC2(CC1)CCN(C(=O)COc1ccc(C#N)c(F)c1F)CC2 [Compound 118, 2,3-difluoro-4-(2-(9-(methyl(7H-pyrrolo[2,3-d]pyrimidin-4-yl)amino)-3-azaspiro[5.5]undecan-3-yl)-2-oxoethoxy)benzonitrile] | 10 to 100 nM |
